The record followed here is patent publication US9750719B2, “Tetrazole compounds as calcium channel blockers” (CONVERGENCE PHARMACEUTICALS LIMITED, priority 2010, dated 2017).

Structures can show the parent of a compound that is named as a salt. A value given as a limit tells only on which side of the number the result lay.

The experiment deals with T1, human Cav2.2 α (α1B) subunit, along with the human β3 and α2δ1 auxiliary subunits (Homo sapiens, UniProt Q00975).
T1 construct: expressed in transfected cells
In words: hCav2.2 assay, IonWorks planar array electrophysiology in stable HEK293 cell line. As to conditions: inhibition by 50% of current elicited by the 1st depolarising pulse; HEK293 cells; read-out: tonic pIC50 (converted). Type of experiment: cell-based. The method, then: Compounds as defined in the first or second aspect may be tested for in vitro biological activity in the hCav2.2 assay in accordance with the following studies:
Stable cell lines expressing the human Cav2.2 α (α1B) subunit, along with the human β3 and α2δ1 auxiliary subunits were created following sequential transfection and selection of human embryonic kidney (HEK293) cells. HEK293 cells were cultured in Dulbecco's modified Eagles media/F12 media (Invitrogen, Cat #041-95750V) containing 10% fetal bovine serum, with added L-glutamine (2 mM; Invitrogen, Cat #25030-024) and non-essential amino acids (5%; Invitrogen, Cat #11140-035). Initially HEK293 cells were transfected with two plasmid vectors for expression of the hCav2.2 α subunit (pCIN5-hCav2.2 which carries a neomycin resistance marker) and the hCav β3 subunit (pCIH-hCav β3 which carries a hygromycin resistance marker). Clonal cell lines were isolated following selection in media supplemented with 0.4 mg ml^−1 Geneticin G418 (Invitrogen, Cat #10131-027) and 0.1 mg ml^−1 hygromycin (Invitrogen, Cat #10687-010). These clonal cell lines were assessed for Cav2.2 α/β3-mediated current expression using the IonWorks planar array electrophysiology technology (described below). A clonal line was identified that gave a reasonable level of functional Cav2.2 α/β3 current expression. This cell line was transfected with a plasmid vector for expression of the human α2δ1 subunit (pCIP-α2δ1 which carries a puromycin resistance marker) and clonal cell lines isolated following selection in media containing 0.62 μg ml^−1 puromycin (Sigma, Cat #P-7255), in addition to 0.4 mg ml^−1 Geneticin G418 and 0.1 mg ml^−1 hygromycin. Several cell lines were identified that gave robust levels of Cav2.2 α/β3/α2δ1-mediated current expression and one of these was selected for compound profiling. Expression of all three subunits within this cell line was continuously maintained by the inclusion of G418 (0.4 mg ml^−1), hygromycin (0.1 mg ml^−1) and puromycin (0.62 μg ml^−1). Cells were maintained at 37° C. in a humidified environment containing 5% CO2 in air. Cells were liberated from the T175 culture flasks for passage and harvesting using TrpLE (Invitrogen, Cat #12604-013).
Cells were grown to 30-60% confluence in T175 flasks and maintained at 30° C. for 24 hrs prior to recording. Cells were lifted by removing the growth media, washing with Ca^2+ free PBS (Invitrogen, Cat #14190-094) and incubating with 3 ml of warmed (37° C.) TrpLE (Invitrogen, Cat #12604-013) for 6 minutes. Lifted cells were suspended in 10 ml of extracellular buffer. Cell suspension was then placed into a 15 ml tube and centrifuged for 2 minutes at 700 rpm. After centrifugation, the supernatant was removed and the cell pellet was resuspended in 4.5 ml of extracellular solution.
Currents were recorded at room temperature (21-23° C.) using the IonWorks planar array electrophysiology technology (Molecular Devices Corp.). Stimulation protocols and data acquisition were carried out using a microcomputer (Dell Pentium 4). In order to determine planar electrode hole resistances (Rp), a 10 mV, 160 ms potential difference was applied across each hole. These measurements were performed before cell addition. After cell addition a seal test was performed prior to antibiotic (amphotericin) circulation to achieve intracellular access. Leak subtraction was conducted in all experiments by applying a 160 ms hyperpolarizing (10 mV) prepulse 200 ms before the test pulses to measure leak conductance. Test pulses stepping from the holding potential (VH) of −90 mV to +10 mV were applied for 20 ms and repeated 10 times at a frequency of 10 Hz. In all experiments, the test pulse protocol was performed in the absence (pre-read) and presence (post-read) of a compound. Pre- and post-reads were separated by a compound addition followed by a 3-3.5 min incubation. […]
A general note: In patch-clamp work, channel activity is measured electrically.

T1 sequence (Q00975 whole entry): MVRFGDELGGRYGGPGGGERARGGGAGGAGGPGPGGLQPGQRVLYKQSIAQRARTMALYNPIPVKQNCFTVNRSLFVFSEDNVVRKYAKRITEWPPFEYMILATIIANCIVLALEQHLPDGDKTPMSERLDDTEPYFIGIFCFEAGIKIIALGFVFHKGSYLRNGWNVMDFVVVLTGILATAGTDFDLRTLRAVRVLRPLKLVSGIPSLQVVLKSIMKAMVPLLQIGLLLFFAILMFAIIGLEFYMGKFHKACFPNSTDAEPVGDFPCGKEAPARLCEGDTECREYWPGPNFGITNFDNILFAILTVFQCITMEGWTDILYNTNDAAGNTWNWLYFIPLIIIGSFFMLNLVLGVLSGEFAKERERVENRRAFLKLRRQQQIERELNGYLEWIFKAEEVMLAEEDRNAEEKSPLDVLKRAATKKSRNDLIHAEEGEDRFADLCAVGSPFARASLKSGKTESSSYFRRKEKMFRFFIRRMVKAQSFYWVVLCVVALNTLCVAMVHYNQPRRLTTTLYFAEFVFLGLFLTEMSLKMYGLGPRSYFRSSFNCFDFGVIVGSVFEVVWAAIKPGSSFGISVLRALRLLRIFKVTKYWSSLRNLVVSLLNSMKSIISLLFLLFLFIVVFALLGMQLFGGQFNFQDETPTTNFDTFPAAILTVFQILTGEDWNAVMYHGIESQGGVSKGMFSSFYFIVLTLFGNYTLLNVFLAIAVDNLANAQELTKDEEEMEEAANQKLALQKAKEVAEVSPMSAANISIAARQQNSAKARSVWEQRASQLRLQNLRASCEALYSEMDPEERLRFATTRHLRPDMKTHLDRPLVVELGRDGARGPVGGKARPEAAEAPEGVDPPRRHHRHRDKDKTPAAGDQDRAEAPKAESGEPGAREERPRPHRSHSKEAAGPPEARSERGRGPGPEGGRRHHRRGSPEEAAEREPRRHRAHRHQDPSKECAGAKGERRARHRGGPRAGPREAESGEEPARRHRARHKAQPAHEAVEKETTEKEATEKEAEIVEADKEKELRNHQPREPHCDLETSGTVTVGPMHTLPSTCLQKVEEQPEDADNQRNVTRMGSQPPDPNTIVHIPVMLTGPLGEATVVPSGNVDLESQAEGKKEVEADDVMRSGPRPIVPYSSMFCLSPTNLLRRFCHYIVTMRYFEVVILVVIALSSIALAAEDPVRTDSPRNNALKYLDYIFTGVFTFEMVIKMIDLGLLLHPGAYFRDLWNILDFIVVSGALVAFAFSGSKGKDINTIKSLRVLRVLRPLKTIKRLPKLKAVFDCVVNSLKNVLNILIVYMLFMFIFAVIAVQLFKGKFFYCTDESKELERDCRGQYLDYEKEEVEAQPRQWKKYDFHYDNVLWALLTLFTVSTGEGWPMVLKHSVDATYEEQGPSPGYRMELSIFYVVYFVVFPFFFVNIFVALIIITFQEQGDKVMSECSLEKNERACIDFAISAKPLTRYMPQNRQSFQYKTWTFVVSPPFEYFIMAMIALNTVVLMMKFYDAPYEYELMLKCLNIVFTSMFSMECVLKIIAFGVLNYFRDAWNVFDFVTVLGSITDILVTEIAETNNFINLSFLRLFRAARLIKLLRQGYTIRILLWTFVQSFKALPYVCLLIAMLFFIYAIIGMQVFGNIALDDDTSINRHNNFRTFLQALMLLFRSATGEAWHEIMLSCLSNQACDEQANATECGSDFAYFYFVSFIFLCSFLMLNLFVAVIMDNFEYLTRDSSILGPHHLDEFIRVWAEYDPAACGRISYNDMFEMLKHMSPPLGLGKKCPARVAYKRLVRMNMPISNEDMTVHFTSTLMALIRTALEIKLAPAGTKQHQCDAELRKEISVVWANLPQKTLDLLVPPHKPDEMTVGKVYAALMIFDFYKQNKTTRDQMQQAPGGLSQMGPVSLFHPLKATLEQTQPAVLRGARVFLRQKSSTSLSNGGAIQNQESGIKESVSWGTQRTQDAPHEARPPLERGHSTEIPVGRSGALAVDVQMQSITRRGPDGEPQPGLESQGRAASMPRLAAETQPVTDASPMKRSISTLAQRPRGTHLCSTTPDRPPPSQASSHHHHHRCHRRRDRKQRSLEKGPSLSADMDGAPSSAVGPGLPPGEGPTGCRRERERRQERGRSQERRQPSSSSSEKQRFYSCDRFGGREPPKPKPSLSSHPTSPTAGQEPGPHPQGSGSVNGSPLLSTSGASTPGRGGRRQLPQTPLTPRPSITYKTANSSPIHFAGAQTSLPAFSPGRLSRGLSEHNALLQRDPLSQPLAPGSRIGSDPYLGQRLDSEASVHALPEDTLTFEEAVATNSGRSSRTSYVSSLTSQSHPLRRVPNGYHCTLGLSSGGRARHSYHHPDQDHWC
T1 sequence (P54284 whole entry partner): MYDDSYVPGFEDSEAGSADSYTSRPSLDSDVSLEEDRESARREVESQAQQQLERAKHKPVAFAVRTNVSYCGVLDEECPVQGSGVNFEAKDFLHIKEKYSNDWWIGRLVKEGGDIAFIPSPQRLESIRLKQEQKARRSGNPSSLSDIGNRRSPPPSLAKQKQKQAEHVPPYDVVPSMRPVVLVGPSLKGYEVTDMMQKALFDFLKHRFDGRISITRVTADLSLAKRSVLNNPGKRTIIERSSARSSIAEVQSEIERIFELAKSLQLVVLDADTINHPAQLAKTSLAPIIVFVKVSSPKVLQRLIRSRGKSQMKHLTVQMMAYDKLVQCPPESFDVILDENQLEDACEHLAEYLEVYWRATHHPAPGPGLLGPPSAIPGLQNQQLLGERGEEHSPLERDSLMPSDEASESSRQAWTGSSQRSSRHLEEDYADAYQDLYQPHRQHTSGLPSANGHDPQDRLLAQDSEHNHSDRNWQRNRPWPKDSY
T1 sequence (P54289 25-946 partner limits assumed): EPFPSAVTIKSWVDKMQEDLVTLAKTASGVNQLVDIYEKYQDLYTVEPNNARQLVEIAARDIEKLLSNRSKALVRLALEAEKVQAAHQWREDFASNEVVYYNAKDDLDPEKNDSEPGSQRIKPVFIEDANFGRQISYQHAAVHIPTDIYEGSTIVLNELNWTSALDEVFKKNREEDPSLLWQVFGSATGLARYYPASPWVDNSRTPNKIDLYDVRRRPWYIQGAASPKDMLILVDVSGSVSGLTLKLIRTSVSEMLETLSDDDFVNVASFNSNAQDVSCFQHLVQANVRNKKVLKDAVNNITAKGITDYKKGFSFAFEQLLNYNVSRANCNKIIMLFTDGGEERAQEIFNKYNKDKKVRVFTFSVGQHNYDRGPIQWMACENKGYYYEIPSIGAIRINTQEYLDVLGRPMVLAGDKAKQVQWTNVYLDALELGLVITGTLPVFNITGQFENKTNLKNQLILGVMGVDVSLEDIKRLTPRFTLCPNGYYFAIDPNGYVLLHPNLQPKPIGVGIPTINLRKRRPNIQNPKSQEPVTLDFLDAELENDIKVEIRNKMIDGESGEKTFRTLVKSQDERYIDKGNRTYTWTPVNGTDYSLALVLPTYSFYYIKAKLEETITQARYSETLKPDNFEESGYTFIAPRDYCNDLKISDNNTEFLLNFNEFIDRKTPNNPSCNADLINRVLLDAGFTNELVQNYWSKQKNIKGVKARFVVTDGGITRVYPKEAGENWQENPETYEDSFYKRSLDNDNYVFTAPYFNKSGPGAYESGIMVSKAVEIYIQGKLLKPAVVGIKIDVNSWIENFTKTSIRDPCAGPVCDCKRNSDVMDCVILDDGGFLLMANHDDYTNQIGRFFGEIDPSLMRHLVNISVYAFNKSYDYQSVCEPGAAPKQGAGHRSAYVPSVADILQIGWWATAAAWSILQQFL
T1 sequence (P54289 947-1103 partner limits assumed): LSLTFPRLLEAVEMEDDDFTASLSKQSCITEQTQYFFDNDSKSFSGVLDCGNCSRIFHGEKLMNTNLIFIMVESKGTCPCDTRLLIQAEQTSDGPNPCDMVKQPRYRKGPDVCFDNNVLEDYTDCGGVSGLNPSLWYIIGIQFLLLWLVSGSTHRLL

In the case of `C[C@@H]1CN(Cc2nnnn2-c2cccc(C(F)(F)F)c2)C[C@H](C)O1` [Compound 3, (cis)-2,6-Dimethyl-4-({1-[3-(trifluoromethyl)phenyl]-1H-tetrazol-5-yl}methyl)morpholine], the IC50 was ≤ 31.6 µM.

Regarding `FC(F)(F)c1ccc(-n2nnnc2CCN2CCOCC2)cc1` [Compound 9, 4-(2-{1-[4-(Trifluoromethyl)phenyl]-1H-tetrazol-5-yl}ethyl)morpholine hydrochloride], the IC50 is ≤ 31.6 µM.

With `C[C@@H]1CN(Cc2nnnn2-c2ccc(Cl)cc2)C[C@H](C)O1` [Compound 13, (cis)-4-{[1-(4-Chlorophenyl)-1H-tetrazol-5-yl]methyl}-2,6-dimethylmorpholine], the IC50 is ≤ 31.6 µM.

For `FC(F)(F)c1cccc(-n2nnnc2CN2CCOCC2)c1` [Compound 19, 4-({1-[3-(Trifluoromethyl)phenyl]-1H-tetrazol-5-yl}methyl)morpholine], the IC50 is ≤ 31.6 µM.

As for `Clc1ccc(-n2nnnc2CN2CCOCC2)cc1Cl` [Compound 21, 4-{[1-(3,4-Dichlorophenyl)-1H-tetrazol-5-yl]methyl}morpholine], the IC50 was ≤ 10 µM.

Turning to `CCCS(=O)(=O)N1CCN(Cc2nnnn2-c2ccc(Cl)cc2)CC1` [Compound 23, 1-{[1-(4-Chlorophenyl)-1H-tetrazol-5-yl]methyl}-4-(propylsulfonyl)piperazine], the IC50 is ≤ 31.6 µM.

As for `N#CC1CCN(Cc2nnnn2-c2cccc(C(F)(F)F)c2)C1` (stereo not shown) [Compound 24, 1-({1-[3-(Trifluoromethyl)phenyl]-1H-tetrazol-5-yl}methyl)-3-pyrrolidinecarbonitrile hydrochloride], the IC50 is ≤ 31.6 µM.

For `C[C@@H]1COCCN1Cc1nnnn1-c1cccc(C(F)(F)F)c1` [Compound 25, (3R)-3-Methyl-4-({1-[3-(trifluoromethyl)phenyl]-1H-tetrazol-5-yl}methyl)morpholine hydrochloride], the IC50 is ≤ 3.16 µM.

For `C[C@@H]1COCCN1Cc1nnnn1-c1ccc(C(F)(F)F)cc1` [Compound 28, (3R)-3-Methyl-4-({1-[4-(trifluoromethyl)phenyl]-1H-tetrazol-5-yl}methyl)morpholine hydrochloride], the IC50 was ≤ 3.16 µM.

Take `CC1(C)COCCN1Cc1nnnn1-c1cccc(C(F)(F)F)c1` [Compound 29, 3,3-Dimethyl-4-({1-[3-(trifluoromethyl)phenyl]-1H-tetrazol-5-yl}methyl)morpholine]: the IC50 was ≤ 10 µM.

As for `C[C@@H]1CN(Cc2nnnn2-c2ccc(C#N)c(C(F)(F)F)c2)C[C@H](C)O1` [Compound 30, 4-(5-{[cis-2,6-Dimethyl-4-morpholinyl]methyl}-1 H-tetrazol-1-yl)-2-(trifluoromethyl)benzonitrile], the IC50 was ≤ 10 µM.

Regarding `CC1C(=O)N(C)CCN1Cc1nnnn1-c1cccc(C(F)(F)F)c1` (stereo not shown) [Compound 33, 1,3-Dimethyl-4-({1-[3-(trifluoromethyl)phenyl]-1H-tetrazol-5-yl}methyl)-2-piperazinone], the IC50 is 63.1 µM.

Consider `N#Cc1ccc(-n2nnnc2CN2CCOCC2)cc1C(F)(F)F` [Compound 34, 4-[5-(4-Morpholinylmethyl)-1H-tetrazol-1-yl]-2-(trifluoromethyl)benzonitrile hydrochloride], for which the IC50 is ≤ 31.6 µM.

Regarding `C[C@H]1COCCN1Cc1nnnn1-c1ccc(C(F)(F)F)cc1` [Compound 39, (3S)-3-Methyl-4-({1-[4-(trifluoromethyl)phenyl]-1H-tetrazol-5-yl}methyl)morpholine hydrochloride], the IC50 is ≤ 10 µM.

For `C[C@@H]1COCCN1Cc1nnnn1-c1ccc(C#N)c(C(F)(F)F)c1` [Compound 41, 4-(5-{[(3R)-3-Methyl-4-morpholinyl]methyl}-1H-tetrazol-1-yl)-2-(trifluoromethyl)benzonitrile], the IC50 is ≤ 3.16 µM.

With `C[C@@H]1COCCN1Cc1nnnn1-c1ccc(C(F)(F)F)cn1` [Compound 42, (3R)-3-Methyl-4-({1-[5-(trifluoromethyl)-2-pyridinyl]-1H-tetrazol-5-yl}methyl)morpholine], the IC50 is ≤ 31.6 µM.
